The values below come from ChEMBL document CHEMBL5532646, “Discovery of 4-(N-dithiobenzyl piperazine)-1,8-naphthalimide as a potent multi-target antitumor agent with good efficacy, limited toxicity, and low resistance” (Eur J Med Chem, 2024).

The source made the active and inactive calls. The calls are words filed in the database; no cut-off is given here.

One data set concerns SK-OV-3. Nature of the data set: Antiproliferative activity against human SK-OV-3 cells incubated for 48 hrs by MTT assay. It counts as functional, cell-based. The settings on record: SK-OV-3, 48 h.
Data set [1] deals with T-24. Nature of the data set: Antiproliferative activity against human T24 cells xenografted in nude mouse model assessed as tumor inhibition rate at 15 mg/kg, ip administered once every two days for 21 days relative to control. To be noted: T-24, 504 h, time 21 day. The class given is functional.
Data set [2] can be described thus: Toxicity in nude mouse model xenografted with human HepG2 cells assessed as pathological change in heart at 15 mg/kg, ip administered once every two days for 21 days. The settings on record: in vivo, 504 h, time 21 day. It counts as organism-based.
The nature of data set [3]: Toxicity in nude mouse model xenografted with human HepG2 cells assessed as pathological change in liver at 15 mg/kg, ip administered once every two days for 21 days. The class given is organism-based. To be noted: in vivo, 504 h, time 21 day.
Data set [4] in a line: Toxicity in nude mouse model xenografted with human HepG2 cells assessed as pathological change in spleen at 15 mg/kg, ip administered once every two days for 21 days. It counts as organism-based. To be noted: in vivo, 504 h, time 21 day.
The nature of data set [5]: Toxicity in nude mouse model xenografted with human HepG2 cells assessed as pathological change in lung at 15 mg/kg, ip administered once every two days for 21 days. It counts as organism-based. To be noted: in vivo, 504 h, time 21 day.
The subject of data set [6] is T-24. Nature of the data set: Induction of ferroptosis in human T24 cells at 5 uM incubated for 24 hrs by KEGG analysis. The class given is functional, cell-based.
Data set [7] concerns T-24. The data set is described as follows: Induction of apoptosis in human T24 cells at 5 uM incubated for 24 hrs by KEGG analysis. The class given is functional, cell-based.
Data set [8] concerns T-24. Nature of the data set: Induction of ferroptosis in human T24 cells assessed as increase in FACL4 level at 5 uM incubated for 24 hrs by Western blot analysis. It counts as functional, cell-based.
Data set [9] deals with T-24. Nature of the data set: Induction of ferroptosis in human T24 cells assessed as increase in iron level at 5 uM incubated for 24 hrs in presence of DFO by FerrOrange probe based confocal microscopy. The class given is functional, cell-based.
The subject of data set [10] is T-24. The data set is described as follows: Induction of ferroptosis in human T24 cells assessed as increase in superoxide anion level at 5 uM incubated for 24 hrs by DHE probe based analysis. It counts as functional, cell-based.
The subject of data set [11] is T-24. The data set is described as follows: Induction of ferroptosis in human T24 cells assessed as smaller mitochondria at 5 uM incubated for 24 hrs by TEM analysis. It counts as functional, cell-based.
Data set [12] deals with T-24. Nature of the data set: Induction of ferroptosis in human T24 cells assessed as increase in mitochondrial membrane density at 5 uM incubated for 24 hrs by TEM analysis. The class given is functional, cell-based.
Data set [13] has as its system T-24. Nature of the data set: Induction of autophagy in human T24 cells assessed as appearance of autophagic vesicles at 5 uM incubated for 48 hrs by TEM analysis. It counts as functional, cell-based.
The test system of data set [14] is T-24. The data set is described as follows: Anti-migratory activity against human T24 cells at 1 to 10 uM incubated upto 48 hrs by wound healing assay. It counts as functional, cell-based. The settings on record: dose 1-10 µM.
Data set [15] concerns T-24. Nature of the data set: Anti-migratory activity against human T24 cells at 5 uM incubated upto 48 hrs in presence of FR180204 by wound healing assay. The class given is functional, cell-based.
Data set [16] deals with T-24. Nature of the data set: Induction of apoptosis in human T24 cells assessed as increase in Bax level at 2 to 8 uM incubated for 24 hrs by Western blot analysis. The class given is functional, cell-based. To be noted: dose 2-8 µM.
Data set [17] relates to T-24. The data set is described as follows: Induction of apoptosis in human T24 cells assessed as increase in Bak level at 2 to 8 uM incubated for 24 hrs by Western blot analysis. It counts as functional, cell-based. To be noted: dose 2-8 µM.
Data set [18] deals with T-24. The data set is described as follows: Induction of cell cycle arrest at G0/G1 phase in human T24 cells at 2 uM incubated for 24 hrs by flow cytometry (reference value: 75.31 %). The class given is functional.
In data set [19] the test system is T-24. Nature of the data set: Induction of cell cycle arrest at G0/G1 phase in human T24 cells at 5 uM incubated for 24 hrs by flow cytometry (reference value: 75.31 %). It counts as functional.
The test system of data set [20] is T-24. Nature of the data set: Induction of cell cycle arrest at G2/M phase in human T24 cells at 8 uM incubated for 24 hrs by flow cytometry (reference value: 12.30 %). The class given is functional.
Data set [21] relates to T-24. The data set is described as follows: Induction of cell cycle arrest in human T24 cells assessed as increase in p21 level at 2 to 8 uM by Western blot analysis. The class given is functional, cell-based. To be noted: dose 2-8 µM.

Regarding `CN(C)CCN1C(=O)c2cccc3c(N4CCN(C(=S)SCc5ccccc5)CC4)ccc(c23)C1=O`, in the data set on SK-OV-3, the half-inhibitory concentration (IC50) was found to be 1430 nM. Moreover, in the data set with T-24 [1], the inhibition in vivo at 15 mg/kg came out at 56.3%. Also, the Activity result in [2] is reported as “Non-Toxic”; in data set [3] it was “Non-Toxic”; in data set [4], “Non-Toxic”; in data set [5], “Non-Toxic”; with T-24 [18], 42.37%; with T-24 [19], 51.06%. In the data set on T-24 [20], this compound displayed an Activity of 16.61%. Also, the result in the data set on T-24 [6], with T-24 [7], in the data set with T-24 [8], in the data set with T-24 [10], with T-24 [11] and with T-24 [12] was Active. The result with T-24 [13], with T-24 [14], in the data set on T-24 [16], in the data set with T-24 [17] and with T-24 [21] was Active. Moreover, the result with T-24 [9] and in the data set on T-24 [15] was inactive.
